These are literature values, as cited in US20180193283A1, “TRANSDERMAL THERAPEUTIC SYSTEM CONTAINING ASENAPINE” (LTS LOHMANN Therapie-Systeme AG, priority 2016, published 2018).

The conditions of data set [1]: very common side effects.

Each structure is given as a SMILES string. Where two headings read alike, the source gives them in different places. Some results are limits rather than exact numbers.

In the case of `CN1C[C@H]2c3ccccc3Oc3ccc(Cl)cc3[C@@H]2C1` (relative stereo) [asenapine, (3aRS,12bRS)-rel-5-chloro-2,3,3a,12b-tetrahydro-2-methyl-1H-dibenz[2,3:6,7]oxepino[4,5-c]pyrrole], the bioavailability (if ingested) was < 2% and the bioavailability (when taken sublingually) was 35%. The terminal disposition half-life (sublingual administration, therapeutic doses) is ≥ 24 h. For the same compound, the “Somnolence and anxiety, frequency” value in data set [1] is ≥ 10 % of the patients.

What is called bioavailability is dose-corrected exposure relative to a reference, in per cent.
